Consider 3 compounds from patent publication US4996314A, “6-(disubstituted amino)carbapenem compounds” (Sanraku Incorporated, priority 1986, dated 1991).

What all share (experiment): Antimicrobial activity (MIC), agar diluting method
Common to all, as to type: cell-based

Test [1] concerns Bacillus subtilis (ATCC 6633). To be noted: ATCC6633, Mueller Hinton agar, 35° C., 18 hours. Here is the method:
(§1) (1) Antimicrobial activity test
(§2) The antimicrobial activity was measured by the agar diluting method in accordance with the Standardized Method of the Japanese Society of Chemotherapy. A twofold dilution of a test compound was prepared by using M/50 phosphate buffer (pH 7.0). One milliliter of this solution and 9 ml of a Mueller Hinton agar medium (made by Difco Laboratories were mixed in a Petri dish having a diameter of 9 cm to prepare plates. A test microorganism was cultured overnight in a stationary condition at 35° C. in a Mueller-Hinton broth (made by Difco) and diluted with physiological saline to provide a cell density of about 10 ^6 cells/ml. Five microliter of the microorganism suspension was inoculated on the agar plates using a microplanter (made by Sakuma Seisakusho). The plates were incubated at 35° C. for 18 hours. The lowest concentration of the test compound at which the growth of the microorganism was completed inhibited is defined as the minimum inhibitory concentration (MIC) of the test compound against the test organism.

Test [2] relates to Comamonas terrigena (B 996). As to conditions: Mueller Hinton agar, 35° C., 18 hours. Here is the method: as §1, §2
Test [3] relates to Micrococcus luteus (ATCC 9341). As to conditions: ATCC9341, Mueller Hinton agar, 35° C., 18 hours. Here is the method: as §1, §2
Test [4] has as its system Staphylococcus aureus (FDA 209 p). As to conditions: FDA209, Mueller Hinton agar, 35° C., 18 hours. Here is the method: as §1, §2

As to `CC(=O)NCCSC1=C(C(=O)O)N2C(=O)[C@H](N(C)C(=O)OCc3ccccc3)[C@H]2C1` [[14], sodium (5R,6R)-3-(2-acetamidoethylthio)-6-(N-benzyloxycarbonyl)methylamino-7-oxo-1-azabicyclo[3.2.0]hept-2-ene-2-carboxylate], the MIC was 1.56 µg/mL in test [1], 1.56 µg/mL in test [2], 1.56 µg/mL in test [3] and 0.2 µg/mL in test [4].
On to `COC(=O)N(C)[C@H]1C(=O)N2C(C(=O)O)=C(SCCNC(C)=O)C[C@H]12` [[22], sodium (5R,6R)-6-(N-carbomethoxy-N-methyl)amino-3-acetamidoethylthio-1-azabicyclo[3.2.0]hept-2-ene-7-one-2-carboxylate], for which the MIC in test [1] was determined as 6.25 µg/mL; in test [2], 0.39 µg/mL; in test [3] it was 3.13 µg/mL; in test [4] it was 0.39 µg/mL.
In the case of `CC(=O)NCCSC1=C(C(=O)O)N2C(=O)[C@H](N(C)S(C)(=O)=O)[C@H]2C1` [[29], sodium (5R,6R)-3-(2-acetamidoethylthio)-6-(N-methanesulfonyl)methylamino-7-oxo-1-azabicyclo[3.2.0]hept-2-ene-2-carboxylate], the MIC in test [1] was found to be 1.56 µg/mL; in test [2], 3.13 µg/mL; in test [3], 0.78 µg/mL; in test [4], 0.2 µg/mL.

By MIC is commonly meant the smallest concentration in the dilution series that meets the test's criterion for growth inhibition. Low readings indicate inhibition by little substance, high ones a need for much substance.
